Target: T1, isomerase (Mus musculus, UniProt Q91ZQ5)
T1 construct: The recovery of 11-cis-retinal after bleaching can be used to estimate the activity of isomerase in vivo; from tissue; host or cells: eye (RPE) of living CD-1 albino male mice
T1 sequence (Q91ZQ5 1-533): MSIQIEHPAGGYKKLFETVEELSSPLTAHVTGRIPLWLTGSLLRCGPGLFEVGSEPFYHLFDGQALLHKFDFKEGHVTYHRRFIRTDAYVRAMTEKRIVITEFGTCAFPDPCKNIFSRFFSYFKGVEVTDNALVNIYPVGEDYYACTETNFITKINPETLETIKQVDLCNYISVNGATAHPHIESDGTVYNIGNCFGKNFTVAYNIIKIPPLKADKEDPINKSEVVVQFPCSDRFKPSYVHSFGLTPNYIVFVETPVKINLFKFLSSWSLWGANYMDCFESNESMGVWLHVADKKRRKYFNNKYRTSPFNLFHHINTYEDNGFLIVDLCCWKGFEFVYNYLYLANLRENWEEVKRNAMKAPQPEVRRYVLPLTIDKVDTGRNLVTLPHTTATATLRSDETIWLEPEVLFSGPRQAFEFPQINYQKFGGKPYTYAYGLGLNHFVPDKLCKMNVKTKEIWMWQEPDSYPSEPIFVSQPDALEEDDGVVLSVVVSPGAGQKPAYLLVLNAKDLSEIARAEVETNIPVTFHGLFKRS
Assay: In vivo murine isomerase assay (recovery of 11-cis-retinal after photobleaching)
Design: species or system CD-1 (albino) male mice
Conditions: for % Inhibition 1 mg/kg 4 h / % Inhibition 1 mg/kg 24 h / % Inhibition 5 mg/kg 4 h / % Inhibition 5 mg/kg 24 h: CD1 male mice; for % Inhibition 1 mg/kg 4 h / % Inhibition 1 mg/kg 24 h: single oral dose 1 mg/kg; for % Inhibition 1 mg/kg 4 h / % Inhibition 5 mg/kg 4 h: photobleaching 4 h post dosing; for % Inhibition 1 mg/kg 24 h / % Inhibition 5 mg/kg 24 h: photobleaching 24 h post dosing; for % Inhibition 5 mg/kg 4 h / % Inhibition 5 mg/kg 24 h: single oral dose 5 mg/kg; for ED50: mouse, po, read-out: ED50 (dose of compound that gives 50% inhibition of 11-cis retinal (oxime) recovery), CD-1 male mice, oral gavage, photobleached 4 hours after dosing
Protocol: The capability of amine derivative compounds to inhibit isomerase was determined by an in vivo murine isomerase assay. Brief exposure of the eye to intense light (“photobleaching” of the visual pigment or simply “bleaching”) is known to photo-isomerize almost all 11-cis-retinal in the retina. The recovery of 11-cis-retinal after bleaching can be used to estimate the activity of isomerase in vivo.
Delayed recovery, as represented by lower 11-cis-retinal oxime levels, indicates inhibition of isomerization reaction. Procedures were performed essentially as described by Golczak et al., Proc. Natl. Acad. Sci. USA 102:8162-67 (2005). See also Deigner et al., Science, 244: 968-71 (1989); Gollapalli et al., Biochim Biophys Acta. 1651: 93-101 (2003); Parish, et al., Proc. Natl. Acad. Sci. USA, 14609-13 (1998); Radu, et al., Proc Natl Acad Sci USA 101: 5928-33 (2004).
[…] Mice were orally gavaged with the several of the amine derivative compounds described herein. After 1-48 hours in the dark, the mice were exposed to photobleaching of 5,000 lux of white light for 10 minutes. The mice were allowed to recover 2 hours in the dark. The animals were then sacrificed by carbon dioxide inhalation. Retinoids were extracted from the eye and the regeneration of 11-cis-retinal was assessed at various time intervals.
All steps were performed in darkness with minimal redlight illumination (low light darkroom lights and redfiltered flashlights for spot illumination as needed) (see, e.g., Maeda et al., J. Neurochem 85:944-956, 2003; Van Hooser et al., J Biol Chem 277:19173-82, 2002). After the mice were sacrificed, the eyes were immediately removed and placed in liquid nitrogen for storage.
The eyes were placed in 500 μL of bis-tris propane buffer (10 mM, pH ˜7.3) and 20 μL of 0.8M hydroxylamine (pH˜7.3). The eyes were cut up into small pieces with small iris scissors and then thoroughly homogenized at 30000 rpm with a mechanical homogenizer (Polytron PT 1300 D) in the tube until no visible tissue remained. 500 μL of methanol and 500 μL of heptane were added to each tube. The tubes were attached to a vortexer so that the contents were mixed thoroughly for 15 minutes in room temperature. The organic phase was separated from the aqueous phase by centrifugation for 10 min at 13K rpm, 4° C. 240 μL of the solution from the top layer (organic phase) was removed and transferred to clean 300 μl glass inserts in HPLC vials using glass pipette and the vials were crimped shut tightly.
The samples were analyzed on an Agilent 1100 HPLC system with normal phase column: SILICA (Beckman Coutlier, dp 5 μm, […]). The running method has a flow rate of 1.5 ml/min; solvent components are 15% solvent 1 (1% isopropanol in ethyl acetate), and 85% solvent 2 (100% hexanes). Loading volume for each sample is 100 μl; detection wavelength is 360 nm. The area under the curve for 11-cis retinal oxime was calculated by Agilent Chemstation software and was recorded manually. Data processing was performed using Prizm software.
Positive control mice (no compound administered) were sacrificed fully dark-adapted and the eye retinoids analyzed. Light (bleached) control mice (no compound administered) were sacrificed and retinoids isolated and analyzed immediately after light treatment. The animals were orally gavaged with 1 mg/kg compound, then “photo-bleached” (5000 Lux white light for 10 minutes) at 4, 24 and 48 hours after dosing, and returned to darkness to allow recovery of the 11-cis-retinal content of the eyes. Mice were sacrificed 2 hours after bleaching, eyes were enucleated, and retinoid content was analyzed by HPLC.
A dose response in vivo isomerase inhibition study was performed with several of the amine derivative compounds described herein. Six-week old dark-adapted CD-1 (albino) male mice were orally gavaged with 0.03, 0.1, 0.3, 1 and 3 mg/kg of compound in sterile water as solution, and photobleached 4 hours after dosing. […]

Row | SMILES | % Inhibition 1 mg/kg 4 h | % Inhibition 1 mg/kg 24 h | other results
1 | CCCC(O)(CCC)CCc1cccc(CCCN)c1 [Example 3, 4-(3-(3-aminopropyl)phenethyl)heptan-4-ol] | 36% | 13% | % Inhibition 5 mg/kg 4 h: 95%; % Inhibition 5 mg/kg 24 h: 0%; ED50 (estimated): 2 mg/kg
2 | NCCCc1cccc(CCC2(O)CCCCC2)c1 [Example 7, 1-(3-(3-aminopropyl)phenethyl)cyclohexanol] | 23% | 12% | –
3 | CCCC(O)(CCC)CCc1cccc(OCCN)c1 [Example 9, 4-(3-(2-aminoethoxy)phenethyl)heptan-4-ol] | 12% | 6% | –
4 | NCCOc1cccc(CCC2(O)CCCCCC2)c1 [Example 10, 1-(3-(2-aminoethoxy)phenethyl)cycloheptanol] | 9% | 1% | –
5 | NCCOc1cccc(CCC2(O)CCSCC2)c1 [Example 11, 4-(3-(2-aminoethoxy)phenethyl)tetrahydro-2H-thiopyran-4-ol] | 0% | 0% | –
6 | NCCOc1cccc(CCC2(O)CCCCC2)c1 [Example 12, 1-(3-(2-aminoethoxy)phenethyl)cyclohexanol] | 27% | 12% | –
7 | NCCC(O)c1cccc(CCC2(O)CCCCC2)c1 (stereo not drawn) [Example 15, 1-(3-(3-amino-1-hydroxypropyl)phenethyl)cyclohexanol] | – | – | ED50 (estimated): 2 mg/kg
8 | NCCC(O)c1cccc(CCC2(O)CCCCCC2)c1 (stereo not drawn) [Example 16, 1-(3-(3-amino-1-hydroxypropyl)phenethyl)cycloheptanol] | 6% | 0% | –
9 | NCCC(O)c1cccc(CCC2CCCC2)c1 (stereo not drawn) [Example 17, 3-amino-1-(3-(2-cyclopentylethyl)phenyl)propan-1-ol] | 84% | 0% | –
10 | CCCC(O)(CCC)CCc1cccc(C(O)CCN)c1 (stereo not drawn) [Example 19, 4-(3-(3-amino-1-hydroxypropyl)phenethyl)heptan-4-ol] | – | – | Inhibition of recovery of 11-cis retinal (oxime), dose dependence (0.03-3 mg/kg oral, 4 hours post dosing): dose related; ED50 (dose of compound that gives 50% inhibition of 11-cis retinal (oxime) recovery) (CD-1 male mice, oral gavage, photobleached 4 hours after dosing, estimated): 0.65 mg/kg; ED50 (estimated): 0.651 mg/kg
11 | NCCCc1cccc(CCC2(O)CCCCCC2)c1 [Example 20, 1-(3-(3-aminopropyl)phenethyl)cycloheptanol] | 0% | 2% | –
12 | CCCCCc1cccc(CCCN)c1 [Example 27, 3-(3-pentylphenyl)propan-1-amine] | 6% | 29% | –
13 | CC(C)(C)CCc1cccc(CCCN)c1 [Example 29, 3-(3-(3,3-dimethylbutyl)phenyl)propan-1-amine] | 0% | 0% | % Inhibition 5 mg/kg 4 h: 62%; % Inhibition 5 mg/kg 24 h: 0%; ED50 (estimated): 4 mg/kg
14 | NCCCc1cccc(CCCCc2ccccc2)c1 [Example 35, 3-(3-(4-phenylbutyl)phenyl)propan-1-amine] | 0% | – | –

Reference: US8450527B2, “Amine derivative compounds for treating ophthalmic diseases and disorders” (Acucela Inc., priority 2007, dated 2013)
